Reference: patent publication US20220280423A1, “GLYMPHATIC DELIVERY BY MANIPULATING PLASMA OSMOLARITY” (University of Rochester, priority 2018, published 2022)
Entries after “also recorded” stand apart in the source; their conditions may differ. Marks after values point to notes of the source that are not given here.

How the values were obtained:
[1] = Head-focused SPECT/CT of ^111In—AuNP or ^111In-LA-DOTA infused to the cisterna magna, 0-3 h; format: in vivo, Sprague-Dawley rats; set-up: AUC0-3 h Striatum / AUC0-3 h Thalamus / AUC0-3 h Intracranial / AUC0-3 h Brain / AUC0-3 h Cervical spine / AUC0-3 h Nasal turbinates / AUC0-3 h Pharyngeal lymph vessel / AUC0-3 h Deep lymph nodes: concentration or dose not given beside the values; details: VEH (isotonic saline i.p.)
Experimental: Cisterna magna cannulation was performed as previously described with minor modifications (Xavier et al. J Vis Exp e57378-e57378 (2018)). Rats were anesthetized with a mixture of ketamine (100 mg/kg) and dexmedetomidine (0.5 mg/kg), administered subcutaneously in a volume of 2 ml/kg. After verification of loss of response to toe pinch, animals were placed in a stereotaxic frame and the neck slightly flexed (30°). The atlanto-occipital membrane overlying the cisterna magna was surgically exposed and a 30 G short-bevelled dental needle connected to PE10 tubing was carefully inserted into the intrathecal space. The catheter was fixed to the dura with cyanoacrylate glue and dental cement.
For post-operative analgesia, rats that were imaged for 24 hours received 5 mg/kg carprofen (Rimadyl® vet, 50 mg/mL, Orion Pharma, Espoo, Finland) s.c. at the beginning of surgery. Temperature was monitored and normothermia was maintained with a heating pad. […] The total volume of 32 μL was infused over 20 minutes. Five minutes before the AuNP infusion started, rats received either hypertonic saline (1 M, 20 mL/kg i.p.) or isotonic saline (0.154 M, 20 mL/kg i.p.). In the MRI experiments, all rats received a hypertonic saline injection, and the infusion rate of Gd-labelled nanoparticles was the same, but the total infusion volume was 80 μL.
Radioactivity of the infused dose was measured with VIK-202 dose calibrator (Comecer, Joure, The Netherlands). The Vector4CT (MILabs, Utrecht, Netherlands) system was used for SPECT/CT imaging. SPECT images were acquired with a high energy ultra high resolution rat 1.8 mm pinhole collimator (HE-UHR-RM 1.8 mm ph). Acquired images were reconstructed using Similarity-Regulated Ordered Subsets […] (SROSEM) with a voxel size of 0.6 mm and 5 iterations. Both decays at the 111-In photopeaks (±20%) and background at 20% outside each photopeak window) were individually used for the reconstruction. Two highly accurate energy dependent system matrices for iterative image reconstruction (SROSEM' Vaissier, P. E. B., Beekman, F. J. & Goorden, M. C. Similarity-regulation of OS-EM for accelerated SPECT reconstruction. Physics in Medicine and Biology 61, 4300-4315 (2016)) were used to minimize artifacts in ^111In imaging with high local uptake and no background activity in surrounding structures. In each matrix the effects of energy dependent pinhole penetration (calculated using a ray tracer, Goorden et al. Physics in Medicine and Biology 61, 3712-3733 (2016)) and intrinsic detector resolution with depth of interaction (DOI) effects in the crystal were modelled. The DOI effect was calculated using GATE Monte Carlo simulations (Jan, S. et al. Physics in Medicine and Biology 49, 4543-4561 (2004)) that was stored in tables and used in the raytracer. Matrices were generated for 171 keV and 245 keV photons and were used during the reconstruction from projections of the corresponding energy peaks. The resulting SPECT images were then added and averaged to obtain the final ^111In image. Head and full-body CT images were acquired directly after the SPECT scans in the same imaging session. SPECT data were attenuation corrected, decay corrected to the half-life of ^111In, and corrected for injected activity, with each voxel representing the percentage of the injected dose per cm^3 (%ID/cm^3).
Head and full-body CT images from each imaging session were nonlinearly registered using Advanced Normalization Tools (ANTs) to the appropriate population-based CT template (described below). Regions of interest (ROIs) were then either drawn manually in on individual CT images, manually in the template space, or were computed automatically in the case of the delineation between CSF and brain described below. Manual ROIs were drawn using ITK-SNAP software. Spherical ROIs (Ø 1.4 mm) for striatum and thalamus were placed using the in-house MRI template as reference. […]

[2] = Stability of ^111In-LA-DOTA complex in CSF or brain homogenate (radio-TLC); format: in vitro ADME, rat; details: CSF and BH, 37° C., over 48 hours
Experimental: To obtain CSF and brain homogenate for assessing AuNP stability, rats were anesthetized with subcutaneous ketamine (100 mg/kg) and dexmedetomidine (0.5 mg/kg) and fixed to a stereotaxic frame after verification of loss of response to painful stimuli. The cisterna magna was exposed and CSF was carefully drawn using a syringe and a 30 G needle. The rats were euthanized, the brains were quickly dissected and cut in four quarters. Each quarter was mixed in 5 mL phosphate-buffered saline (PBS) using a homogenizer. Both the CSF and brain homogenates were stored at —80° C. To allow UV-VIS characterization at low radioactivity level, radiolabeled AuNPs were mixed with non-radiolabeled, PEG-coated AuNPs from the same batch (see section 2.2). The gold concentration was the same in both AuNPs samples (0.373 mg/mL). […]
Free ^111In-LA-DOTA: The following mixtures were prepared and analyzed: 1) CSF (30 μL)+^111In-LA-DOTA complex solution (30 μL), 2) Brain homogenate (15 μL)+PBS (15 μL)+^111In-LA-DOTA complex solution (30 μL). […] The mixtures were incubated at 37° C. and samples were analyzed by radio-TLC at 0, 4, 24, and 48 hours. […]

## O=C(O)CN1CCN(CC(=O)O)CCN(CC(=O)NCCNC(=O)CCCCC2CCSS2)CCN(CC(=O)O)CC1 (stereo not drawn) [^111In-LA-DOTA, 2,2′,2″-(10-(2-((2-(5-(1,2-dithiolan-3-yl)pentanamido)ethyl)amino)-2-oxoethyl)-1,4,7,10-tetraazacyclododecane-1,4,7-triyl)triacetic acid, metal not drawn]
[1]
  AUC0-3 h Brain: 84.2 ± 13.6^c % ID · h
  AUC0-3 h CSF: 40.2 ± 9.4 % ID · h
  AUC0-3 h Cervical spine: 126.5 ± 30.32 % ID/cm^3 · h
  AUC0-3 h Deep lymph nodes: 0.1 ± 0.1^f % ID/cm^3 · h
  AUC0-3 h Nasal turbinates: 2.4 ± 1.4^b % ID/cm^3 · h
  AUC0-3 h Pharyngeal lymph vessel: 0.5 ± 0.1^d % ID/cm^3 · h
  AUC0-3 h Striatum: 4.5 ± 1.5 % ID/cm^3 · h
  AUC0-3 h Thalamus: 7.5 ± 4.2^k % ID/cm^3 · h
  Peak tracer mass Brain: 39.6 ± 4.3 % ID
  Peak tracer mass CSF: 27.3 ± 3.5 % ID
  Peak tracer mass Intracranial: 65.4 ± 6.0 % ID
  Peak tracer mass Striatum: 4.3 ± 1.6 % ID/cm^3
  Peak tracer mass Thalamus: 8.3 ± 3.1^n % ID/cm^3
  Residual after 3 h Brain: 20.6 ± 5.0^g % ID
  Residual after 3 h CSF: 4.9 ± 1.3 % ID
  Residual after 3 h Intracranial: 25.5 ± 6.2 % ID
[1]; intracisternal infusion, rats
  AUC0-3 h Intracranial: 124.4 ± 22.5 % ID · h
[2]
  stability of the chelate (release of ^111In from the chelator): stable; also recorded: did not result in appreciable destabilization
